Assay results from US20030083237A1, “Anti-angiogenic peptides for cancer treatment” (priority 2001, published 2003).
Ends that are not written are not given here. Peptide text beside a SMILES is read from it.

System: BCE cells (Bovine Capillary Endothelial cells)
Type: cell-based
Details: for inhibiting the growth of BCE cells (in-vitro inhibition studies, FIG. 2): result in words
Description: The inhibition of said peptides on the endothelial cells was performed on BCE cells (Bovine Capillary Endothelial cells) as shown in Example 9. The inhibition of said peptide on the endothelial cells was performed on BCE cells (Folkman et al, Proceedings of the National Academy of Sciences USA. 76: 5217-5221 (1979)). The medium contains 90% DMEM (Dulbecco's Modified Eagle Medium), 10% FBS (fetal bovine serum), and 2 ng/mL of bFGF (basic fibroblast growth factor). A 24-well platelet was used for the growth of the BCE cells. To each well, 8,000-10,000 cells and 0.5 mL of the medium were added. The medium in each of the test wells was replaced by medium containing P1, P2, P3, P4, P5, P6, P7, or AK38 after 12 hours and continue to grow 5-7 days at 37° C. the BCE cells, in comparison to the control samples, to evaluate the inhibition on the growth of endothelial cells. The concentration inhibiting 50% of the cell growth is defined as IC50. […] (FIG. 6)

Row | IC50 [nM] | Compound | inhibiting the growth of BCE cells (in-vitro inhibition studies, FIG. 2)
1 | – | MFGNGKGYRGKKATTVTGTP [Peptide P2, protected form of peptide {2} of AK38 kringle] | none of the four peptides (P1, P2, P6, and P7) is significantly effective
2 | – | ASSSFD [Peptide P7, protected form of peptide {7} of AK38 kringle] | none of the four peptides (P1, P2, P6, and P7) is significantly effective
3 | – | QQWAAQEPHRHSTFIPGTNKWAGLEKNY [Peptide P3, protected form of peptide {3} of AK38 kringle] | minor inhibition effect
4 | 100 | CC[C@H](C)[C@H](NC(=O)[C@H](CC(=O)O)NC(=O)CNC(=O)[C@H](CC(=O)O)NC(=O)[C@@H]1CCCN1C(=O)[C@H](CC(N)=O)NC(=O)[C@H](CCCNC(=N)N)NC(C)=O)C(=O)N[C@@H](CC(N)=O)C(=O)NCC(=O)N1CCC[C@H]1C(=O)N[C@@H](Cc1c[nH]c2ccccc12)C(N)=O [Peptide P4, Arg-Asn-Pro-Asp-Gly-Asp-Ile-Asn-Gly-Pro-Trp] (Ac-RNPDGDINGPW-NH2) | very effective
5 | – | IVPSLGPPSEQD [Peptide P1, protected form of peptide {1} of AK38 kringle] | none of the four peptides (P1, P2, P6, and P7) is significantly effective
6 | – | Asp-Ile-Pro-Leu (DIPL; printed: Asp-Ile-Pro-Leu) [Peptide P6, protected form of peptide {6} of AK38 kringle] | none of the four peptides (P1, P2, P6, and P7) is significantly effective
7 | 45 | CSCC[C@H](NC(=O)[C@@H](NC(=O)[C@H](Cc1ccc(O)cc1)NC(C)=O)[C@@H](C)O)C(=O)N[C@@H](CC(N)=O)C(=O)N1CCC[C@H]1C(=O)N[C@@H](CCCNC(=N)N)C(=O)N[C@@H](CCCCN)C(=O)N[C@@H](CC(C)C)C(=O)N[C@@H](Cc1ccccc1)C(=O)N[C@@H](CC(=O)O)C(=O)N[C@@H](Cc1ccc(O)cc1)C(N)=O [Peptide P5, Tyr-Thr-Met-Asn-Pro-Arg-Lys-Leu-Phe-Asp-Tyr] (Ac-YTMNPRKLFDY-NH2) | very effective
